Several values for one entry are separate records, joined by “and”; a condition that tells them apart may be missing. Identical values can stand only once. Like-named read-outs stand apart in the source and are kept apart here.
Key:
Wild-type Pgp [1] = target: T1, Wild-type Pgp (Homo sapiens, UniProt P08183); experiment: Nucleotide trapping kinetics (BeFx or Vi), UIC2-A647 labeling; details: for accumulation in the trapped complex: both in WT and single Walker A mutant Pgp variants
Method: The transition state of Pgp was stabilized by the addition of ATP/Mg^2+ and vanadate (Vi) or BeFx at 37 °C. Permeabilized cells were incubated with 100 μM (for WT) or 500 μM (for K433M and K1076M) ATP/Mg^2+ and 0.5 mM Vi[70] or BeFx (200 μM BeSO4 and 1 mM NaF) in the presence or absence of substrates in PBS at 37 °C. 500 μl aliquots were taken at regular intervals and washed twice with 5 ml ice-cold PBS containing Vi or BeFx at the same concentrations that were applied previously during incubation. […] The UIC2-A647 fluorescence intensity of the samples (F) was plotted as a function of time (t). The t1/2 values representing the half-life of the UIC2-reactive Pgp conformation were calculated from an exponential fit of the data points according to the following equation:

Wild-type Pgp [2] = target: T1, Wild-type Pgp; experiment: VBL-BPY binding in permeabilized NIH 3T3 cells (confocal microscopy); details: 5 mM AMP-PNP
Method: Cells permeabilized by Staphylococcus alpha toxin (a) or Streptolysin O (b) were treated with different concentrations of CsA, ATP/Mg^2++ vanadate (Vi) or AMP-PNP/Mg^2+ followed by co-staining with VBL-BPY and 15D3-A647. The ratio of the VBL-BPY and 15D3-A647 fluorescence intensity was determined in pixels representing the plasma membrane, selected on the basis of 15D3-A647 fluorescence intensity exceeding the threshold of 300. Nucleotide-treated samples were compared to permeabilized ATP-depleted cells (0 mM nucleotide); the values are means ± SD of three independent experiments (***P < 0.001).

K433M Pgp = K433M Pgp (Homo sapiens, UniProt P08183, K433M); experiment: UIC2 mAb labeling of permeabilized cells: apparent affinity of nucleotide binding; details: 37 °C, Mg2+
Chain of K433M Pgp (P08183 whole entry K433M): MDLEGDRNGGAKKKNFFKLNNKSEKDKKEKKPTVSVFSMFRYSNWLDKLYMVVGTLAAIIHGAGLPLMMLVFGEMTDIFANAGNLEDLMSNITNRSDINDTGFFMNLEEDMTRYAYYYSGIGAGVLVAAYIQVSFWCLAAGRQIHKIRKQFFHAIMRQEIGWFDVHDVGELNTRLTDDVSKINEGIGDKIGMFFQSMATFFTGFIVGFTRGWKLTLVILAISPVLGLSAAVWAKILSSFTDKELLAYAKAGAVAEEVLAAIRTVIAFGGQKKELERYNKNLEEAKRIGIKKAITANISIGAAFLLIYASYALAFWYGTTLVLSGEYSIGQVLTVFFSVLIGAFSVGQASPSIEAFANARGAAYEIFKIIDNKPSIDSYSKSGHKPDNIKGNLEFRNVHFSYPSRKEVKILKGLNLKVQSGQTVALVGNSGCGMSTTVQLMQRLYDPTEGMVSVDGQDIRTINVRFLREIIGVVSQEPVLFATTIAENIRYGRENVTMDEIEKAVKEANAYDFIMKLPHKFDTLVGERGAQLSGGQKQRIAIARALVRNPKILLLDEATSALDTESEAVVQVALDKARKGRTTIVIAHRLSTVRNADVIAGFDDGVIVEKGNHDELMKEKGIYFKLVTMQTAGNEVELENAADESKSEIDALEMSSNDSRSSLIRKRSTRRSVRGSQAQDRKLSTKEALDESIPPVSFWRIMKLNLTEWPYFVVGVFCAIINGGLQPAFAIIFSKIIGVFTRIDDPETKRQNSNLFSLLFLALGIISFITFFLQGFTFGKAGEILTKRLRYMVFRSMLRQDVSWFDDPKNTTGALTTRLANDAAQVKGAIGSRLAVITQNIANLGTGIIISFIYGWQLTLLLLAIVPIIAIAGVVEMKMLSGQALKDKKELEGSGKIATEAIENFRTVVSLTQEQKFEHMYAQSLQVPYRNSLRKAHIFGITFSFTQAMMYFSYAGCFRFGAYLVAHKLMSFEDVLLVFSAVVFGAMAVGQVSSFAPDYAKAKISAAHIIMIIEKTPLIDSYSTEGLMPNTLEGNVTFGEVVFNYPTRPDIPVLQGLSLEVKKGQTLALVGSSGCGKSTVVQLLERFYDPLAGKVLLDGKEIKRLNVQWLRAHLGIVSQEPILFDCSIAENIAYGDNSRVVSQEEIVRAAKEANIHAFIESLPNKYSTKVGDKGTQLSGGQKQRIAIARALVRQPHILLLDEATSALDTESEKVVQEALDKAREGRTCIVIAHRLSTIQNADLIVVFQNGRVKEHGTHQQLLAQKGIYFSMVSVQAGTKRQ
Method: (§1) Permeabilized cells (1 × 10^6 ml^−1) were pre-incubated for 20 min with nucleotides added in a broad concentration range and then further incubated for 30 min with 10 μg/ml A647-conjugated UIC2 monoclonal antibody (all at 37 °C). UIC2 mAb binding to Pgp is a reversible reaction in the presence of ATP/Mg^2+ (Supplementary Fig. S6), thus, UIC2 was applied at a quasi-saturating concentration (5Kd;UIC2; Supplementary Fig. S5) and the duration of the incubation period was sufficient to reach equilibrium binding of UIC2 (Supplementary Fig. S6).
(§2) To prevent ATP hydrolysis, ATP was added to permeabilized cells without Mg^2+ in the presence of 5 mM EDTA. Alternatively, ATP was replaced by the non-hydrolysable ATP analogue AMP-PNP/Mg^2+, or the experiment was conducted on ice. […] Following antibody labeling, samples were washed 3 times with ice-cold PBS and centrifuged for 7 min at 635 g at 4 °C. The UIC2-A647 fluorescence intensity of the cells was measured by flow cytometry and plotted as a function of the nucleotide concentration.

K1076M Pgp = K1076M Pgp (Homo sapiens, UniProt P08183, K1076M); experiment: as above; details: 37 °C, Mg2+
Chain of K1076M Pgp (P08183 whole entry K1076M): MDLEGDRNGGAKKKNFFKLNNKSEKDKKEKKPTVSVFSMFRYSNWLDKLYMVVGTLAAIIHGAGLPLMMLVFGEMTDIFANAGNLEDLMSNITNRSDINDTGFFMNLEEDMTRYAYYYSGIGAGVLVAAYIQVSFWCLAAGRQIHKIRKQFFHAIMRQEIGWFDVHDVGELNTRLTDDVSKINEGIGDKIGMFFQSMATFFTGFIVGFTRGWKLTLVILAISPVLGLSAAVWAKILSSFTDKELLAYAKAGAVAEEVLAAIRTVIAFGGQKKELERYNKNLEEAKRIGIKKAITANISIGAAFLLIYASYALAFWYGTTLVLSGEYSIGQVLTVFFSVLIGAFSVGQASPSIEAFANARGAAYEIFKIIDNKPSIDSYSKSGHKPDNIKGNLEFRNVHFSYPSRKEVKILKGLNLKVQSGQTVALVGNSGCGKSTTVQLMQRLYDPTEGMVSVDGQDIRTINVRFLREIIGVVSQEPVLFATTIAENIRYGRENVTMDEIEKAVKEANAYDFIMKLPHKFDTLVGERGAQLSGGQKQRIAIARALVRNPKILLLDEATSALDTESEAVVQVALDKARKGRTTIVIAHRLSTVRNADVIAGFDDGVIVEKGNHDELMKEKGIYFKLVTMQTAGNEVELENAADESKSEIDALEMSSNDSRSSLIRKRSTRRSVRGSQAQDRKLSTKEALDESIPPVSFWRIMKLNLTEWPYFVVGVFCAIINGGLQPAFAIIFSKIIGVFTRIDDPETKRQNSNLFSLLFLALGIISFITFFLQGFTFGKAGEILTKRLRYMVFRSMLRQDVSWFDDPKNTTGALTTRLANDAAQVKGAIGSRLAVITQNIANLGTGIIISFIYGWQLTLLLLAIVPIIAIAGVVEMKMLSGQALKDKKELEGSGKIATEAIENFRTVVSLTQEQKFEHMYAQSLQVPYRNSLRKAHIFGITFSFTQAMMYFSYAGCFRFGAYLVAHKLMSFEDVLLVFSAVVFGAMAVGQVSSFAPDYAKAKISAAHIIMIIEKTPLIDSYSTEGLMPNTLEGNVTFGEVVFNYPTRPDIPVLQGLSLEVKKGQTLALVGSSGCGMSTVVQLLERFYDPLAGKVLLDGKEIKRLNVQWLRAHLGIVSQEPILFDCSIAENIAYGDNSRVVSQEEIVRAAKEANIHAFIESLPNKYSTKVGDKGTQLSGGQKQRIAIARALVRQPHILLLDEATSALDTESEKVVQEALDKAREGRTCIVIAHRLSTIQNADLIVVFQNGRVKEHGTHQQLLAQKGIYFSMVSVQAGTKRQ
Method: as §1, §2

Wild-type Pgp [3] = target: T1, Wild-type Pgp; experiment: UIC2 mAb labeling of permeabilized NIH 3T3 cells: apparent affinity of nucleotide binding
Method: as §1, §2

[4] = test system: MDCK cells expressing single Walker A mutant Pgp; experiment: Cytotoxic effect of vinblastine, AlamarBlue assay; assay type: cell-based, canine; details: 72 h, single mutants
Method: cells/well. 24 hours later vinblastine was added at different concentrations and the plates were
further incubated for 72 h at 37 °C. The cell viability was determined using the AlamarBlue
assay (Serotec, UK) measuring the 530/590 nm fluorescence intensity of the dye in an
automated microplate reader (BioTec Synergy HT, US). The fluorescence intensities of the
samples were normalized to the fluorescence of the vinblastine untreated control sample, and
plotted as a function of vinblastine concentration. The data points are means of eight parallel
samples (±SD) from a representative experiment out of three.

Wild-type Pgp [5] = target: T1, Wild-type Pgp
Method: Permeabilized cells trapped in the presence of ATP/Mg^2+ (100 μM for wild-type and 500 μM for single Walker A mutants) and 0.5 mM Vi were washed 3 times with ice-cold PBS and incubated in the presence or absence of ATP and/or substrates (verapamil, vinblastine) at 37 °C. 500 μl aliquots containing 2 × 10^5 cells were taken at regular intervals and washed twice with 5 ml PBS. […] At the end of incubations the samples were washed three times with ice-cold PBS and kept on ice until measurement in the flow cytometer.

[6] = target: double Walker A mutant Pgp (Homo sapiens, UniProt P08183, K1076M/K433M); details: apical membrane, MDCK cells, 100 nM VBL-BPY
Chain of double Walker A mutant Pgp (P08183 whole entry K433M/K1076M): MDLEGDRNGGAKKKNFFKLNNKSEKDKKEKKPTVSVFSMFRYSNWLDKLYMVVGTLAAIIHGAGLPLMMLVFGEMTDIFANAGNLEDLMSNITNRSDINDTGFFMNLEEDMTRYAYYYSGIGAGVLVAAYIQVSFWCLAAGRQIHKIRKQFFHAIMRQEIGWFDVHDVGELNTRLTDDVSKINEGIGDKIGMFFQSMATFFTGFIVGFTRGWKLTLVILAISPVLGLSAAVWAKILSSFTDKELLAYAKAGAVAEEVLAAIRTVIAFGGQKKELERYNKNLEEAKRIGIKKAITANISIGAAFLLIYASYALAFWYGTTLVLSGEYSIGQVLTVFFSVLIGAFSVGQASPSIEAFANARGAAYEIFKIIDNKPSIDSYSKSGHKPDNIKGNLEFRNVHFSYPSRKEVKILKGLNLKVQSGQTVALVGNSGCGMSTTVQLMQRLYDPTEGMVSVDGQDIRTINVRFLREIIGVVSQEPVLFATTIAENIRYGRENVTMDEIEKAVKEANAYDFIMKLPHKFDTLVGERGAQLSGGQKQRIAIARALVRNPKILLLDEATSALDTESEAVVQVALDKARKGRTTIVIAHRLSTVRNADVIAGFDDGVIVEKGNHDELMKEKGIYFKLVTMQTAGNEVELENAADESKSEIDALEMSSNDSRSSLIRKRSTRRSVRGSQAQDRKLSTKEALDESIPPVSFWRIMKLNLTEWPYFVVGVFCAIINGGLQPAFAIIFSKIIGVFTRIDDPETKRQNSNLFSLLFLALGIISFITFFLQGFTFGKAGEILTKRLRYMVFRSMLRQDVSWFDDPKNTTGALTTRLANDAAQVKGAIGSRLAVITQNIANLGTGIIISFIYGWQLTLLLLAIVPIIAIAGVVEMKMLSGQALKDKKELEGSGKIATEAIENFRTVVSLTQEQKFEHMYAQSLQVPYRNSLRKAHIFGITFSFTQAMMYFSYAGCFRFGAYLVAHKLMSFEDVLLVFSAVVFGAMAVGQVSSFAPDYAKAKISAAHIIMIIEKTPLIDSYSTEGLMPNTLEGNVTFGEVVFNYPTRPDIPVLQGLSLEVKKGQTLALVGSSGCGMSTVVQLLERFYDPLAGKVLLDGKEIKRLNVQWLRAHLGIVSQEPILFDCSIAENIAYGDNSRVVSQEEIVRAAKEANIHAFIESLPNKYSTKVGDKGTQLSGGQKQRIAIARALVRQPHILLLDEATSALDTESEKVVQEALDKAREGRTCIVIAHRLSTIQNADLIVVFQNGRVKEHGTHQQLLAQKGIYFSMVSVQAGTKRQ
Method: The pattern and extent of co-localization in the sections were determined by using the cross-correlation scattergrams of the green and red pixels of the images. Co-localization indices were determined from 30–50 cells (in three independent experiments). The Pearson’s co-localization index (CI) provides a reliable estimate on the extent of fluorescence co-localization: CI values close to zero indicate no or a very low degree, while CI ≥ 0.5 reflects a high degree of co-localization, whereas the CI = 1 value would correspond to a full overlap between the two colours in each pixel of the image.

[7] = test system: single Walker A mutant Pgps (K433M and K1076M); experiment: UIC2 mAb labeling of permeabilized cells, single mutants taken together; assay type: cell-based, human
Method: as §1, §2

Wild-type Pgp [8] = target: T1, Wild-type Pgp; experiment: Recovery from the Vi-trapped post-hydrolysis state (UIC2 labeling); details: data not shown
[9] = test system: single Walker A mutant Pgp (K433M, K1076M); experiment: Vinblastine-bodipy staining and 15D3-A647 co-localization in MDCK cells; assay type: cell-based, human; details: 2 mM vanadate
Method: Cells were plated in 8-well Ibidi μ-Slide (Ibidi GmbH, Martinsried, Germany) two days before the experiments to obtain nearly confluent cultures. The samples were pre-incubated with the following agents: Na-azide (10 mM) and 2-deoxy D-glucose (8 mM), Vi (2 mM) or NEM (50 μM) for 30 min and then further incubated with 100 nM vinblastine-bodipy (VBL-BPY) and 30 μg/ml A647-conjugated 15D3 anti-Pgp antibody for another 30 min at 37 °C.
Cellular localization of Pgp and VBL-BPY staining was studied by a three-laser confocal laser scanning microscope (Olympus FluoView 1000 confocal microscope based on an inverted IX-81 stand with an UPlansAPo 60 × NA 1.35 oil immersion objective, Hamburg, Germany). […] Fluorescence intensities were detected in the spectral ranges of 500–530 nm, 555–655 nm and 655–755 nm, respectively. To assess the co-localization of VBL-BPY (green) and Alexa 647-conjugated 15D3 (red) fluorescence signals, single optical slices of apical membrane surfaces were recorded for double-labeled cells. The pattern and extent of co-localization in the sections were determined by using the cross-correlation scattergrams of the green and red pixels of the images. Co-localization indices were determined from 30–50 cells (in three independent experiments). […]

T1 sequence (P08183 whole entry): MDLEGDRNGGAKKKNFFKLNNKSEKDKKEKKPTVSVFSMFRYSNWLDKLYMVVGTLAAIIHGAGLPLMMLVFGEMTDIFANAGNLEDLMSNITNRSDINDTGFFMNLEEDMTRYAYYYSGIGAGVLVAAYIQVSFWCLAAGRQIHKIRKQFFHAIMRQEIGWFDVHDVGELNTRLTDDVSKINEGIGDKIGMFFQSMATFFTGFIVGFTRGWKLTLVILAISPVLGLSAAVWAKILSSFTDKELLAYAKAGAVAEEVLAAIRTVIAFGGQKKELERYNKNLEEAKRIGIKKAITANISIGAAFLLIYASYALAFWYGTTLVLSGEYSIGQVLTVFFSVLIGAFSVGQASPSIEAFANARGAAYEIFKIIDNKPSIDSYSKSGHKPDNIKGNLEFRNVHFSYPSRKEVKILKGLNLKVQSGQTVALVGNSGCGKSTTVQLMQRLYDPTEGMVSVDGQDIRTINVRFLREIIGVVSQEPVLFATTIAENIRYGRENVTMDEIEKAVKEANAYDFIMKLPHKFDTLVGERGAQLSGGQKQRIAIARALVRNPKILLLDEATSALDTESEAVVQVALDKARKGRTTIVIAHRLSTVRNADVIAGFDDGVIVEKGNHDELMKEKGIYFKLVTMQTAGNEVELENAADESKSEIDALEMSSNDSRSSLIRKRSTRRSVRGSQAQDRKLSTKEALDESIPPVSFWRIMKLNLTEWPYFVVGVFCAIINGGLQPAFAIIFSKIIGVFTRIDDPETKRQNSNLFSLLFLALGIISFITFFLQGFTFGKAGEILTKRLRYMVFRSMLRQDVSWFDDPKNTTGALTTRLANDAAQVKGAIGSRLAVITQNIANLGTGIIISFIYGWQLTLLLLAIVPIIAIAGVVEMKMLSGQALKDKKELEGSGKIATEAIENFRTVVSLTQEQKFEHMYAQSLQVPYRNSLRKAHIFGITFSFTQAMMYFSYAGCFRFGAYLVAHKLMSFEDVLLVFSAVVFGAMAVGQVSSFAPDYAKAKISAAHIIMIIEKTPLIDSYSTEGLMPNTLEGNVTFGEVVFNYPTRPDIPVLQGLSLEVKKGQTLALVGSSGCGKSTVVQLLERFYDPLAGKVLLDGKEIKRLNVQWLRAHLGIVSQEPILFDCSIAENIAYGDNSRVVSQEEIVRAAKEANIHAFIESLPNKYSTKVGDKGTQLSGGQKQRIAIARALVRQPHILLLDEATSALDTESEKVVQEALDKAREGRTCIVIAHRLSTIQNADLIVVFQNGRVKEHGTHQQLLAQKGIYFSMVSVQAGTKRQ

## COC(=O)c1ccccc1-c1c2ccc(=N)cc-2oc2cc(N)ccc12 [rhodamine 123]
Wild-type Pgp [1]
  accumulation in the trapped complex: accelerated

## Nc1ncnc2c1ncn2[C@@H]1O[C@H](COP(=O)(O)OP(=O)(O)NP(=O)(O)O)[C@@H](O)[C@H]1O [AMP-PNP]
Wild-type Pgp [2]
  co-localization of VBL-BPY and Pgp: significant decrease
K433M Pgp
  Hill slope: 2.06 ± 0.29
  KA (apparent nucleotide affinity) for competing UIC2 labeling: 3.40 ± 1.42 mM
K1076M Pgp
  Hill slope: 1.68 ± 0.23
  KA (apparent nucleotide affinity) for competing UIC2 labeling: 3.01 ± 0.92 mM
Wild-type Pgp [3]; 37 °C, Mg2+
  Hill slope: 1.75 ± 0.34
Wild-type Pgp [3]; 37 °C, Mg2+, 10 μg/ml UIC2
  KA (apparent nucleotide affinity) for competing UIC2 labeling: 0.27 ± 0.14 mM

## CC[C@]1(O)C[C@@H]2CN(CCc3c([nH]c4ccccc34)[C@@](C(=O)OC)(c3cc4c(cc3OC)N(C)[C@H]3[C@@](O)(C(=O)OC)[C@H](OC(C)=O)[C@]5(CC)C=CCN6CC[C@]43[C@@H]65)C2)C1 [vinblastine]
[4]
  resistance against the cytotoxic effect of vinblastine: conferred resistance
Wild-type Pgp [5]
  effect on release of the tightly bound nucleotide from the Vi-trapped complex: not influenced
Wild-type Pgp [1]
  accumulation in the trapped complex: accelerated
Wild-type Pgp [1]; up to 200 μM vinblastine, BeFx, 20 min, 37 °C
  apparent affinity for ATP in the presence of substrate: did not change

## CCC1(O)CC2CN(CCc3c([nH]c4ccccc34)C(C(=O)OC)(c3cc4c(cc3OC)N(C)C3C(O)(C(=O)OC)C(OC(=O)CCC5=[N+]6C(=Cc7c(C)cc(C)n7[B-]6(F)F)C=C5)C5(CC)C=CCN6CCC43C65)C2)C1 (stereo not drawn) [VBL-BPY, BODIPY FL vinblastine]
[6]
  Pearson's cross-correlation coefficient between VBL-BPY and 15D3 anti-Pgp antibody signals: ~ 0.8

## Nc1ncnc2c1ncn2[C@@H]1O[C@H](COP(=O)(O)OP(=O)(O)OP(=O)(O)O)[C@@H](O)[C@H]1O [ATP]
[7]; 10 μg/ml UIC2
  fraction of UIC2 label persisting in saturating ATP: ~ 50%
[7]; at [UIC2] about 5Kd;UIC2
  KA (apparent affinity for competing UIC2 labeling): ~2.5 mM
[7]; estimated with Eq. 7 of the kinetic model, read-out: Kd;ATP, dissociation constant of ATP from inward-facing Pgp
  Kd: ~5 mM
[7]; from Eq. 3 of the kinetic model, read-out: predicted KM for ATP-hydrolysis and substrate transport in the absence of UIC2
  Km: ~700 µM
[7]; relative to WT
  decrease in apparent affinity for ATP of the single mutants: ~ 10 fold
Wild-type Pgp [8]
  effect on release of the tightly bound nucleotide from the Vi-trapped complex: not influenced
K433M Pgp
  Hill slope: 0.90 ± 0.32
  KA (apparent nucleotide affinity) for competing UIC2 labeling: 2.08 ± 1.04 mM
K1076M Pgp
  Hill slope: 0.89 ± 0.33
  KA (apparent nucleotide affinity) for competing UIC2 labeling: 2.03 ± 0.91 mM
Wild-type Pgp [3]; 4 °C, Mg2+
  Hill slope: 0.66 ± 0.17
  KA (apparent nucleotide affinity) for competing UIC2 labeling: 2.70 ± 1.83 mM
Wild-type Pgp [3]; 37 °C, Mg2+
  Hill slope: 0.77 ± 0.20
Wild-type Pgp [3]; 37 °C, Mg2+, 10 μg/ml UIC2
  KA (apparent nucleotide affinity) for competing UIC2 labeling: 0.25 ± 0.16 mM and 0.25 mM
Wild-type Pgp [3]; 37 °C, no Mg2+
  Hill slope: 1.60 ± 0.22
  KA (apparent nucleotide affinity) for competing UIC2 labeling: 1.92 ± 0.33 mM
Wild-type Pgp [3]; read-out: Kd;ATP, dissociation constant of ATP from inward-facing Pgp, estimated with Eq. 7 of the kinetic model from KA and T2/T1;min
  Kd: ~700 µM
Wild-type Pgp [3]; read-out: predicted KM for ATP-hydrolysis and substrate transport in the absence of UIC2, from Eq. 3 of the kinetic model
  Km: ~60 µM

## [O]=[V]([O-])([O-])[O-] [Vi, orthovanadate]
[7]; ATP/Mg2+, 37 °C
  increase in the apparent affinity of the single mutants to ATP on addition of vanadate: 5–10 fold
[9]
  effect on VBL-BPY binding to single Walker A mutants: fully suppressed
Wild-type Pgp [1]; n = 6, Pgp variant not given
  t1/2 of Vi trapping: 235.2 ± 52.2 s
Wild-type Pgp [3]; ATP hydrolysis prevented (Fig. 1b-d)
  effect of Vi on apparent affinity: not influenced at all
Wild-type Pgp [3]; hydrolysis conditions: 37 °C, ATP/Mg2+
  effect of vanadate on apparent affinity: increased the apparent affinity

— paper PMC4846820, “A single active catalytic site is sufficient to promote transport in P-glycoprotein” (Scientific Reports, 2016)
